Numbers after ± are expanded uncertainties.
Test: wn = mass fraction of the nth substance listed
Conditions: for surface tension liquid-gas: Maximal bubble pressure; for mass density: 101 kPa, Liquid, Buoyancy - hydrostatic balance

`CC(O)C(=O)[O-].CCn1cc[n+](C)c1` [1-ethyl-3-methylimidazolium lactate] + O gave a surface tension liquid-gas (303.15 K, w2 = 0.0121) of 49.4 ± 0.6 mN/m, a surface tension liquid-gas (303.15 K, w2 = 0.0158) of 49.7 ± 0.6 mN/m and a surface tension liquid-gas (303.15 K, w2 = 0.0205) of 50.1 ± 0.6 mN/m. It also gave a mass density (303.15 K, w2 = 0.0082) of 1187.6 ± 1.1 kg/m3, a mass density (303.15 K, w2 = 0.0104) of 1188.8 ± 1.1 kg/m3 and a mass density (303.15 K, w2 = 0.0121) of 1189.7 ± 1.1 kg/m3. The mass density (303.15 K, w2 = 0.0158) was 1191.5 ± 1.1 kg/m3, the mass density (303.15 K, w2 = 0.0205) was 1194 ± 1.1 kg/m3 and the surface tension liquid-gas (308.15 K, w2 = 0.0082) was 48.7 ± 0.6 mN/m. The surface tension liquid-gas (308.15 K, w2 = 0.0104) was 48.9 ± 0.6 mN/m, the surface tension liquid-gas (308.15 K, w2 = 0.0121) was 49 ± 0.6 mN/m and the surface tension liquid-gas (308.15 K, w2 = 0.0158) was 49.3 ± 0.6 mN/m. The surface tension liquid-gas (308.15 K, w2 = 0.0205) was 49.7 ± 0.6 mN/m, the mass density (308.15 K, w2 = 0.0082) was 1184.3 ± 1.1 kg/m3 and the mass density (308.15 K, w2 = 0.0104) was 1185.5 ± 1.1 kg/m3. The mass density (308.15 K, w2 = 0.0121) was 1186.4 ± 1.1 kg/m3, the mass density (308.15 K, w2 = 0.0158) was 1188.3 ± 1.1 kg/m3 and the mass density (308.15 K, w2 = 0.0205) was 1190.7 ± 1.1 kg/m3. For the same compound, the surface tension liquid-gas (313.15 K, w2 = 0.0082) was 48.4 ± 0.6 mN/m, the surface tension liquid-gas (313.15 K, w2 = 0.0104) was 48.6 ± 0.6 mN/m and the surface tension liquid-gas (313.15 K, w2 = 0.0121) was 48.7 ± 0.6 mN/m. It also gave a surface tension liquid-gas (313.15 K, w2 = 0.0158) of 49 ± 0.6 mN/m, a surface tension liquid-gas (313.15 K, w2 = 0.0205) of 49.4 ± 0.6 mN/m and a mass density (313.15 K, w2 = 0.0082) of 1180.9 ± 1.1 kg/m3. The mass density (313.15 K, w2 = 0.0104) was 1182 ± 1.1 kg/m3, the mass density (313.15 K, w2 = 0.0121) was 1182.9 ± 1.1 kg/m3 and the mass density (313.15 K, w2 = 0.0158) was 1184.9 ± 1.1 kg/m3. It also gave a mass density (313.15 K, w2 = 0.0205) of 1187.5 ± 1.1 kg/m3, a surface tension liquid-gas (318.15 K, w2 = 0.0082) of 48.1 ± 0.6 mN/m and a surface tension liquid-gas (318.15 K, w2 = 0.0104) of 48.3 ± 0.6 mN/m. The surface tension liquid-gas (318.15 K, w2 = 0.0121) was 48.4 ± 0.6 mN/m, the surface tension liquid-gas (318.15 K, w2 = 0.0158) was 48.7 ± 0.6 mN/m and the surface tension liquid-gas (318.15 K, w2 = 0.0205) was 49.1 ± 0.6 mN/m. For the same compound, the mass density (318.15 K, w2 = 0.0082) was 1177.6 ± 1.1 kg/m3, the mass density (318.15 K, w2 = 0.0104) was 1178.8 ± 1.1 kg/m3 and the mass density (318.15 K, w2 = 0.0121) was 1179.7 ± 1.1 kg/m3. It also gave a mass density (318.15 K, w2 = 0.0158) of 1181.5 ± 1.1 kg/m3, a mass density (318.15 K, w2 = 0.0205) of 1184 ± 1.1 kg/m3 and a surface tension liquid-gas (323.15 K, w2 = 0.0082) of 47.7 ± 0.6 mN/m. The surface tension liquid-gas (323.15 K, w2 = 0.0104) was 47.9 ± 0.6 mN/m, the surface tension liquid-gas (323.15 K, w2 = 0.0121) was 48 ± 0.6 mN/m and the surface tension liquid-gas (323.15 K, w2 = 0.0158) was 48.3 ± 0.6 mN/m. It also gave a surface tension liquid-gas (323.15 K, w2 = 0.0205) of 48.7 ± 0.6 mN/m, a mass density (323.15 K, w2 = 0.0082) of 1174.5 ± 1.1 kg/m3 and a mass density (323.15 K, w2 = 0.0104) of 1175.6 ± 1.1 kg/m3. It also gave a mass density (323.15 K, w2 = 0.0121) of 1176.4 ± 1.1 kg/m3, a mass density (323.15 K, w2 = 0.0158) of 1178.2 ± 1.1 kg/m3 and a mass density (323.15 K, w2 = 0.0205) of 1180.6 ± 1.1 kg/m3. The surface tension liquid-gas (328.15 K, w2 = 0.0082) was 47.3 ± 0.6 mN/m, the surface tension liquid-gas (328.15 K, w2 = 0.0104) was 47.5 ± 0.6 mN/m and the surface tension liquid-gas (328.15 K, w2 = 0.0121) was 47.6 ± 0.6 mN/m. The surface tension liquid-gas (328.15 K, w2 = 0.0158) was 47.9 ± 0.6 mN/m, the surface tension liquid-gas (328.15 K, w2 = 0.0205) was 48.3 ± 0.6 mN/m and the mass density (328.15 K, w2 = 0.0082) was 1171.3 ± 1.1 kg/m3. It also gave a mass density (328.15 K, w2 = 0.0104) of 1172.5 ± 1.1 kg/m3, a mass density (328.15 K, w2 = 0.0121) of 1173.4 ± 1.1 kg/m3 and a mass density (328.15 K, w2 = 0.0158) of 1175.3 ± 1.1 kg/m3. It also gave a mass density (328.15 K, w2 = 0.0205) of 1177.7 ± 1.1 kg/m3, a surface tension liquid-gas (333.15 K, w2 = 0.0082) of 47 ± 0.6 mN/m and a surface tension liquid-gas (333.15 K, w2 = 0.0104) of 47.2 ± 0.6 mN/m. For the same compound, the surface tension liquid-gas (333.15 K, w2 = 0.0121) was 47.3 ± 0.6 mN/m, the surface tension liquid-gas (333.15 K, w2 = 0.0158) was 47.6 ± 0.6 mN/m and the surface tension liquid-gas (333.15 K, w2 = 0.0205) was 48 ± 0.6 mN/m. For the same compound, the mass density (333.15 K, w2 = 0.0082) was 1168 ± 1.1 kg/m3, the mass density (333.15 K, w2 = 0.0104) was 1169.1 ± 1.1 kg/m3 and the mass density (333.15 K, w2 = 0.0121) was 1170 ± 1.1 kg/m3. For the same compound, the mass density (333.15 K, w2 = 0.0158) was 1172 ± 1.1 kg/m3 and the mass density (333.15 K, w2 = 0.0205) was 1174.5 ± 1.1 kg/m3.

Reference: the NIST ThermoML archive (doi:10.1016/j.jct.2013.07.008)
